# Literature values, collected in patent US20110034507A1, “FARNESOID X RECEPTOR AGONISTS” (SMITHKLINE BEECHAM CORPORATION, priority 2007, published 2011).
# Columns and labels:
# [1] = system: hepatic stellate cells (HSC); conditions: cultured HSCs; cited from earlier work
# [2] = system: rodent models of hepatic fibrosis; conditions: multiple rodent models; cited from earlier work
structure (smiles),measurement,setting,value
"CC[C@H]1[C@@H](O)[C@@H]2[C@H](CC[C@]3(C)[C@@H]([C@H](C)CCC(=O)O)CC[C@@H]23)[C@@]2(C)CC[C@@H](O)C[C@@H]12 [Example 6EtCDCA, 6-ethyl-chenodeoxycholic acid]",expression of α1(I)collagen,[1],decreased
same,expression of α-smooth muscle actin,[1],decreased
same,hepatic fibrosis,[2],prevent development and promote resolution
